Reference: patent publication US20110105611A1, “USE OF MASLINIC ACID FOR THE TREATMENT OF P[…] THEIR SYMPTOMS THROUGH THE INHIBITION OF COX-2” (Biomaslinic S.L., priority 2008, published 2011)
Entries after “also recorded” stand apart in the source; their conditions may differ. Where two headings read alike, the source gives them in different places.

What was measured:
[1] = test system: PGE2 production in human monocytes; experiment: PGE2 production in LPS-stimulated human monocytes of peripheral blood (EIA); format: cell-based; settings: LPS-stimulated human monocytes from peripheral blood
Description: (§1) 2. Cell Cultures • Isolation and culture of primary monocytes of peripheral blood. Peripheral blood mononuclear cells (PBMC) coming from healthy adults volunteer donors were isolated by venous blood centrifugation through density gradient with Ficoll-Hypaque. The monocytes were separated through adherence to plastic and later cultured in 24-well plates at a density of 50,000 cells/ml for the enzyme immunoassay (EIA) experiments and in 6-well plates for the immunoblot assays. • Culture of human primary chondrocytes. Chondrocytes were bought from Promocell (Heidelberg, Germany) and cultured in medium conditioned for this type of cells. The cells were cultured in 24-well plates for the determination of PGE2 and IL-6. • Culture of rat primary astrocytes. The astrocyte primary cultures were prepared from neonatal rat brains (1 day old). […] The cultures were expanded in 6-well plates and the production of PGE2 measured in cells after the 3 or 4 pass. • Culture of cell lines. […]
Chondrocyte, monocyte and astrocyte cultures were stimulated with the corresponding activators (IL-1, LPS or PMA plus lonomicine) in presence or absence of several concentrations of maslinic acid during the indicated times. […] PGE2 was determined using the EIA system of Assay Designs (catalogue number 901-001) following the manufacturer instructions. […]

COX-2 [2] = experiment: COX-2 protein expression in LPS-stimulated monocytes (western blot); format: cell-based, human; settings: growing doses of MA, 12 hours, listed as MA
Description: as §1, with “cells.” for “cells. The cells were cultured in 24-well plates for the determination of PGE2 and IL-6. • Culture of rat primary astrocytes. The astrocyte primary cultures were prepared from neonatal rat brains (1 day old).”
The cells (primary monocytes or SK—N—SH) were stimulated as indicated in each case and lysis solution in 50 μl (20 mM Hepes pH 8.0, 10 mM KCl, 0.15 mM EGTA, 0.15 mM EDTA, 0.5 mM Na3VO4, 5 mM NaF, 1 mM DTT, leupeptin 1 μg/ml, pepstatin 0.5 μg/ml, aprotinin 0.5 μg/ml, 1 mM PMSF y 0.5% NP-40). The protein concentration was determined through the Bradford reagent (Bio-Rad, Richmond, Calif., USA) and 30 μg of proteins were boiled in Laemmli solution and submitted to electrophoresis in gel of SDS/polyacrylamide at 10%. […]

COX-2 [3] = experiment: COX-2 enzymatic activity in LPS-induced monocytes (conversion of arachidonic acid to PGE2); format: cell-based, human; settings: monocytes LPS 24 hours, MA 15 minutes, arachidonic acid 15 μM 15 minutes
Description: In order to determine COX-2 activity, the cells were LPS-stimulated first (10 ng/ml) for 24 hours to induce the cellular expression of the COX-2 protein. After that time the cultures were washed and a new free of serum culture medium, maslinic acid (different concentrations) and arachidonic acid (AA) were added for 15 minutes. During this time, the enzymatic activity of COX-2 was measured by its capacity to produce PGE2 from the AA included in the culture.
Vis-à-vis the possibility of MA acting as inhibitor of COX-2 activity, we induced the expression of COX-2 through the treatment of monocytes with LPS for 24 hours. After this time, the cells were washed three times with a medium without serum and incubated for 15 minutes with growing doses of MA. After this time, arachidonic acid was added to the cultures (15 μM) for other 15 minutes and the conversion to PGE2 was measured by EIA.

[4] = test system: promoter of the COX-2 gene; experiment: COX-2 promoter luciferase assay in transfected SK-N-SH cells; format: cell-based, human; settings: PMA plus ionomycin 6 hours
Description: as §1
(§2) SK—N—SH cells were transfected with the plasmids COX-2-Luc and IL-6-Luc using the JetPei reagent (Polyplus transfection, France) according to the manufacturer instructions. […] The luciferase activity in the protein extract was determined through the use of the luminometer Autolumat LB9510 (Berthold) following the system instructions of Luciferase assay from Promega (Madison, Wis., USA). […]

[5] = test system: PGE2 production in human chondrocytes; experiment: PGE2 release in primary human chondrocytes stimulated with IL-1; format: cell-based; settings: IL-1 10 U/ml; for release of PGE2 induced by IL-1, higher doses: MA 25 and 50 μg/ml
Description: (§3) 2. Cell Cultures • Isolation and culture of primary monocytes of peripheral blood. Peripheral blood mononuclear cells (PBMC) coming from healthy adults volunteer donors were isolated by venous blood centrifugation through density gradient with Ficoll-Hypaque. The monocytes were separated through adherence to plastic and later cultured in 24-well plates at a density of 50,000 cells/ml for the enzyme immunoassay (EIA) experiments and in 6-well plates for the immunoblot assays. • Culture of human primary chondrocytes. Chondrocytes were bought from Promocell (Heidelberg, Germany) and cultured in medium conditioned for this type of cells. The cells were cultured in 24-well plates for the determination of PGE2 and IL-6. • Culture of rat primary astrocytes. The astrocyte primary cultures were prepared from neonatal rat brains (1 day old). The upper part of the brain was opened and the meninges carefully separated to avoid contamination of the cultures with fibroblasts. The cerebral cortex was isolated and a cellular suspension was obtained, which was cultured in DMEM conditioned for the astrocyte culture. The cultures were expanded in 6-well plates and the production of PGE2 measured in cells after the 3 or 4 pass. • Culture of cell lines. SK—N—SH (American Tissue Culture collection, HTB 11) is a cell line derived from a human neuroblastoma and an exponential growth in DMEM supplemented by 2 mmol/l L-glutamine, antibiotics and 10% FCS. The cells were cultured at 37° C. and in an atmosphere at 5% CO2.
(§4) Chondrocyte, monocyte and astrocyte cultures were stimulated with the corresponding activators (IL-1, LPS or PMA plus lonomicine) in presence or absence of several concentrations of maslinic acid during the indicated times. […] PGE2 was determined using the EIA system of Assay Designs (catalogue number 901-001) following the manufacturer instructions.
(§5) In order to determine if the effect of MA on the production of PGE2 also occurred in another cell type involved in inflammatory phenomena the anti-inflammatory activity of maslinic acid on primary human chondrocytes was determined. […]

[6] = test system: IL-6 production in human chondrocytes; experiment: IL-6 production in primary human chondrocytes stimulated with IL-1; format: cell-based; settings: IL-1 10 U/ml, concentration dependent
Description: as §1, with “old). The upper part of the brain was opened and the meninges carefully separated to avoid contamination of the cultures with fibroblasts.” for “old).”
as §5

[7] = test system: IL-6 production in human monocytes; experiment: IL-6 production in LPS-stimulated human monocytes (EIA); format: cell-based
Description: as §1
(§6) Monocyte cultures were stimulated in the same way as for the production of PGE2 (LPS stimulation for 24 hours) and the amount of 8-iso-prostaglandine F2α (isoprostanes) or IL-6 released by the cells was determined respectively through the systems EIA from Cayman (USA) (catalogue number 516351) or from Pelikine (catalogue number RDI-M1916clb) following the manufacturer instructions.

promoter of IL-6 = experiment: IL-6 promoter luciferase assay in transfected SK-N-SH cells; format: cell-based, human; settings: listed as MA
Description: as §1, §2

[8] = test system: 8-iso-PGF2α production in human monocytes; experiment: Isoprostane (8-iso-PGF2α) release in LPS-stimulated human monocytes (EIA); format: cell-based; settings: for release of 8-iso-PGF2α (isoprostanes): human monocytes of peripheral blood after LPS stimulation
Description: as §3, §6
Isoprostanes such as endoperoxide 8-iso-prostaglandin F2α (8-iso-PGF2α) are metabolites of the oxidation of arachidonic acid and nowadays it is considered one of the best markers of oxidative stress. […]

[9] = test system: PGE2 production in primary astrocytes; experiment: PGE2 production in primary rat astrocytes; format: cell-based
Description: as §1, §4

[10] = test system: PGE2 production in SK-N-SH cells; experiment: PGE2 production in SK-N-SH neuroblastoma cell line; format: cell-based, human
Description: as §1, §4

T lymphocytes = experiment: Activation and proliferation of T lymphocytes stimulated via TCR; format: cell-based
[11] = test system: TNFα production in primary monocytes; experiment: TNFα production in primary monocytes; format: cell-based
tumor cell lines = experiment: Apoptosis induction in tumor cell lines (concentration comparison); format: cell-based
[12] = test system: LPS-stimulated murine peritoneal macrophages; settings: cited from earlier work
[13] = test system: mononuclear cells of human peripheral blood; settings: cited from earlier work

With CC1(C)CC[C@]2(C(=O)O)CC[C@]3(C)C(=CC[C@@H]4[C@@]5(C)C[C@@H](O)[C@H](O)C(C)(C)[C@@H]5CC[C@]43C)[C@@H]2C1 [maslinic acid, 2-alpha,3-beta-dihydroxyolean-12-en-28-oic acid] the “production of PGE2” value [1] was “inhibits the production; also recorded: inhibited the production of PGE2”, the “production of PGE2” value ([1]; listed as Maslinic acid) was “inhibits the production of PGE2” and the “expression of COX-2 induced by LPS (western blot)” value (COX-2 [2]) was “did not inhibit the expression of COX-2”. The “enzymatic activity of COX-2 (conversion of arachidonic acid to PGE2, EIA)” value (COX-2 [3]) was “inhibits the enzymatic activity of COX-2”, the “enzymatic activity of COX-2 (conversion of arachidonic acid to PGE2, EIA)” value (COX-2 [3]; listed as MA) was “inhibited in a dose-depending manner the enzymatic activity of COX-2” and the “transcriptional activity of the COX-2 gene (luciferase)” value [4] was “does not inhibit the transcriptional activation of the gene promoter of COX-2”. The “transcriptional activity of the COX-2 gene (luciferase)” value ([4]; listed as MA) was “did not affect the transcriptional activity of the COX-2 gene”, the “production of PGE2 after stimulation with IL-1, low doses” value ([5]; MA 0.1 and 1 μg/ml) was “an increase in the production of PGE2” and the “release of PGE2 induced by IL-1, higher doses” value [5] was “at high doses inhibits the production of PGE2”. The “release of PGE2 induced by IL-1, higher doses” value ([5]; listed as MA) was “a complete inhibition of the release of this prostaglandin”, the “production of IL-6” value [6] was “inhibits the production of IL-6” and the “production of IL-6” value ([6]; listed as MA) was “completely inhibited”. The “IL-6 induced by LPS” value [7] was “inhibits the production”, the “IL-6 induced by LPS” value ([7]; listed as Maslinic acid) was “inhibits the production of IL-6” and the “transcriptional activity of the IL-6 promoter (luciferase), IL-1 stimulation” value (promoter of IL-6; IL-1, 4 hours) was “is not produced by a transcriptional inhibition of the gene of IL-6; also recorded: does not inhibit the transcriptional activity of the IL-1 promoter”. The “transcriptional activity of the IL-6 promoter (luciferase), PMA plus ionomycin stimulation” value (promoter of IL-6; PMA plus ionomycin, 4 hours) was “is not produced by a transcriptional inhibition of the gene of IL-6; also recorded: does not inhibit the transcriptional activity of the IL-1 promoter”, the “release of 8-iso-PGF2α (isoprostanes)” value [8] was “inhibits the production of isoprostanes” and the “release of 8-iso-PGF2α (isoprostanes)” value ([8]; listed as MA) was “inhibits in a concentration depending way the release of 8-iso-PGF2α”. The “inhibiting power on the production of isoprostanes compared with reference antioxidants” value ([8]; primary monocytes, listed as MA) was “higher than that of tocopherol and trolox; also recorded: comparable to that of resveratrol”, the “production of PGE2 in primary astrocytes” value [9] was “Dual Effect” and the “production of PGE2 in SK-N-SH cell line (neuroblastoma)” value ([10]; listed as Maslinic Acid) was “Dual Effect”. For the same compound, the “production of PGE2 in SK-N-SH cell line (neuroblastoma)” value ([10]; listed as Maslinic acid) was “at high doses inhibits the production of PGE2”, the “activation and proliferation of T lymphocytes” value (T lymphocytes) was “inhibits the activation and proliferation of T lymphocytes” and the “production of TNFα” value [11] was “inhibits the production”. The “concentrations inhibiting innate and acquired immune responses versus those required to induce apoptosis in tumor cell lines” value (tumor cell lines) was “noticeably lower”, the “production of NO” value [12] was “inhibits” and the “production of hydrogen peroxide (ROS)” value [12] was “inhibits”. For the same compound, the “release of IL-6” value [12] was “inhibits”, the “release of TNFα” value [12] was “inhibits” and the “inhibition of IL-6, TNFα, NO and hydrogen peroxide” value [13] was “do not find”.
